Laboratory results: ChEMBL document CHEMBL1124563, “On the structure selectivity problem in drug design. A comparative study of benzylpyrimidine inhibition of vertebrate and bacterial dihydrofolate reductase via molecular graphics and quantitative structure-activity relationships” (J Med Chem, 1989)
pKi: −log10 of the molar value.

Columns and labels:
[1] = Partition coefficient (logD) (aqueous phase 0.1 N HCl)
[2] = Partition coefficient (logD) (0.01 N NaOH); format: physicochemical
[3] = molecular target: T1, Dihydrofolate reductase (Gallus gallus, UniProt P00378)
T1 sequence (P00378 whole entry): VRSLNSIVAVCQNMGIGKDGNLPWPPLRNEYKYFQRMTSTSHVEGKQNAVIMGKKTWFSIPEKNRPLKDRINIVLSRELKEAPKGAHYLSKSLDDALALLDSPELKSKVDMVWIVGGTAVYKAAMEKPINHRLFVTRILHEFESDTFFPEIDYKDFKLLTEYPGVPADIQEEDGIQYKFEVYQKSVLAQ
Description: Inhibitory activity against chicken liver dihydrofolate reductase

[4] = molecular target: Dihydrofolate reductase (Lactobacillus casei, UniProt P00381)
Description: Inhibitory activity against Lactobacillus casei dihydrofolate reductase

[5] = Toxic index against Dihydrofolate reductase; format: ADME

Sequence of Dihydrofolate reductase (Lactobacillus casei, UniProt P00381) (P00381 whole entry): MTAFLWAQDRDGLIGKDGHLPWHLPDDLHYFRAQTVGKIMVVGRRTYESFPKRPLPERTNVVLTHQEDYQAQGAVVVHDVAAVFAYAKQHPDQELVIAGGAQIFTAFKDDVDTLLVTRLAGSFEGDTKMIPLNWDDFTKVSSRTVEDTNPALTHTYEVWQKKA

Row | Compound | logD ([1]; 0.1 N HCl (aqueous phase)) | logD ([2]; 0.01 N NaOH, read-out: logD) | pKi [3] | pKi [4] | further results
1 | CC(=O)Nc1ccc(Cc2cnc(N)nc2N)cc1[N+](=O)[O-] | -2.23 |  |  |  | 
2 | COc1cccc(Cc2cnc(N)nc2N)c1 |  |  |  |  | logD ([2]; octanol/water): 1.54
3 | Nc1ccc(Cc2cnc(N)nc2N)cc1 |  | 0.22 |  |  | 
4 | Nc1ncc(Cc2ccc(OC(F)(F)F)cc2)c(N)n1 |  |  | 4.32 |  | 
5 | CCOc1cc(Cc2cnc(N)nc2N)ccc1OCc1ccccc1 | 1 |  | 4.74 | 6.51 | 
6 | Nc1ncc(Cc2ccccc2)c(N)n1 |  |  |  |  | logD ([2]; octanol/water): 1.54
7 | Nc1ncc(Cc2ccc(O)c(O)c2)c(N)n1 | 2.08 |  |  |  | 
8 | CS(=O)(=O)Oc1ccc(Cc2cnc(N)nc2N)cc1 |  | 0.6 | 4.31 | 6.49 | 
9 | COCCOc1c(Cc2cnc(N)nc2N)ccc(OC)c1OC | -1.81 |  | 3.64 | 6.26 | Toxic index [5]: 2.62
10 | Nc1ncc(Cc2cccc(O)c2)c(N)n1 | -1.34 |  |  |  | 
11 | COCCOc1ccc(Cc2cnc(N)nc2N)cc1OCCOC |  |  |  |  | logD ([1]; octanol/water): 1.89
12 | CCc1cc(Cc2cnc(N)nc2N)cc(CO)c1CO | -2.23 |  | 3.58 | 6.71 | Toxic index [5]: 3.13
13 | Nc1ncc(Cc2ccc(-c3ccccc3)cc2)c(N)n1 | 0.98 |  | 5.26 | 6.41 | 
14 | Nc1ncc(Cc2ccc3c(c2)OCO3)c(N)n1 |  |  | 4.68 | 6.34 | 
15 | Nc1ncc(Cc2ccc(OCc3ccccc3)cc2)c(N)n1 |  |  | 4.83 | 6.35 | 
16 | Cc1cc(C)cc(Cc2cnc(N)nc2N)c1 |  |  |  | 5.87 | 
17 | Nc1ncc(Cc2ccc(O)cc2)c(N)n1 | -1.47 |  | 4.17 | 6.38 | 
18 | CCc1cc(Cc2cnc(N)nc2N)cc(NC(C)=O)c1CO | -2.17 |  | 3.46 | 6.82 | Toxicity index [5]: 3.36
19 | CCc1cc(Cc2cnc(N)nc2N)cc(CC)c1CC |  |  | 5.25 | 6.88 | 
20 | C=C(C)c1c(OC)cc(Cc2cnc(N)nc2N)cc1OC |  | 2.07 | 4.17 | 7.34 | 
21 | CCOc1cc(Cc2cnc(N)nc2N)cc(OCC)c1 |  |  | 4.14 | 6.41 | 
22 | COc1cc(Cc2cnc(N)nc2N)cc(OC)c1N(C)C [ADITOPRIM] |  |  | 4.15 | 6.45 | 
23 | CCOc1cc(Cc2cnc(N)nc2N)cc(OCC)c1-n1cccc1 [EPIROPRIM] |  |  | 4.33 | 7.33 | 

Second part, led by results:

Row | logD ([1]; 0.1 N HCl (aqueous phase)) | logD ([2]; 0.01 N NaOH, read-out: logD) | pKi [3] | pKi [4] | Compound | further results
24 |  | 2.66 | 4.72 | 6.50 | COc1cc(Cc2cnc(N)nc2N)ccc1OCc1ccccc1 | 
25 | -0.18 |  |  | 7.10 | COc1ccc(Cc2cnc(N)nc2N)cc1C(F)(F)F | 
26 |  | 2.88 |  |  | CCCCOCc1cccc(Cc2cnc(N)nc2N)c1 | 
27 |  | 2.44 | 4.74 | 6.91 | COc1ccc(Cc2cnc(N)nc2N)cc1OCc1ccccc1 | 
28 | -1.92 |  | 4.53 | 6.67 | COc1ccc(Cc2cnc(N)nc2N)cc1OS(C)(=O)=O | 
29 |  | 0.74 | 3.85 | 6.59 | COc1ccc(Cc2cnc(N)nc2N)cc1O | 
30 |  |  |  | 5.38 | CCCCCCCOc1ccc(Cc2cnc(N)nc2N)cc1 | 
31 |  |  | 4.77 | 5.70 | CCCCCCCCOc1c(OC)cc(Cc2cnc(N)nc2N)cc1OC | 
32 |  |  | 4.13 | 6.19 | CCCOc1cc(Cc2cnc(N)nc2N)cc(OCCC)c1 | 
33 | -1.87 |  | 4.19 | 6.54 | COCCOc1ccc(Cc2cnc(N)nc2N)cc1OC | 
34 |  |  | 4.36 | 6.23 | CCCOc1cc(Cc2cnc(N)nc2N)cc(OCC)c1 | 
35 | 2.54 |  | 4.71 | 6.50 | CCCCCCCCOc1cc(Cc2cnc(N)nc2N)ccc1OC | 
36 |  | 0.6 | 4.59 | 6.44 | COc1cc(Cc2cnc(N)nc2N)ccc1OS(C)(=O)=O | 
37 |  | 0.64 | 4.31 | 6.47 | COc1cc(Cc2cnc(N)nc2N)ccc1O | 
38 |  | 2.01 |  | 7.28 | COc1cc(Cc2cnc(N)nc2N)cc(OC)c1Br [BRODIMOPRIM] | 
39 |  | 0.97 |  |  | COc1ccc(Cc2cnc(N)nc2N)cc1OC [DIAVERIDINE] | 
40 |  | 1.54 |  | 7.25 | COc1cc(Cc2cnc(N)nc2N)cc(OC)c1SC [METIOPRIM] | 
